Calls of active or inactive are those of the source.
Columns and labels:
[1] = biological target: T1, Alkaline phosphatase, tissue-nonspecific isozyme (Homo sapiens, UniProt P05186); test: activation of tissue-nonspecific alkaline phosphatase – biochemical, TNAP isozyme, human IAP uHTS hits, selectivity assay for human IAP activator project, dose response (AID 488886); assay type: functional;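 note: potency of compounds raising TNAP activity as a selectivity check on IAP activators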
T1 sequence (P05186 whole entry): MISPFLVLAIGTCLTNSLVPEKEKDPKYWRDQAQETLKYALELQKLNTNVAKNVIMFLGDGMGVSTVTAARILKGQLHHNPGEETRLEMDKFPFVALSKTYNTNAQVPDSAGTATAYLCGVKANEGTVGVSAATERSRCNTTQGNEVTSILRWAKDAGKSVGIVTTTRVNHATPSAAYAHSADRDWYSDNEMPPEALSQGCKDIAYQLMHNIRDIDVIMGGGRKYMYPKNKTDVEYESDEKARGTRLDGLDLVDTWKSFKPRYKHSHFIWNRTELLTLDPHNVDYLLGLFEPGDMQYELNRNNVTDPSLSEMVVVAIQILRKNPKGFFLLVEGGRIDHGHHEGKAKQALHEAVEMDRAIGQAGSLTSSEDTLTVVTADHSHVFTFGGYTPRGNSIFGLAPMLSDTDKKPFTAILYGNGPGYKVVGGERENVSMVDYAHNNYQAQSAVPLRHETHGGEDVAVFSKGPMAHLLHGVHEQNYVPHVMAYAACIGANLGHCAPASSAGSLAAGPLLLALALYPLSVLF

[2] = biological target: Intestinal-type alkaline phosphatase (Homo sapiens, UniProt P09923); test: human intestinal alkaline phosphatase activators, dose response, biochemical, luminescence, uHTS hits (AID 463120); assay type: functional
[3] = tested on: BJ; test: cells; assay type: functional, cell-based; conditions: Homo sapiens
[4] = biological target: Cyclin-dependent kinase 5 (Homo sapiens, UniProt Q00535); assay type: functional;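 note: CDK5 measured as one member of a kinase profiling panel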
[5] = biological target: Mitogen-activated protein kinase 14 (Homo sapiens, UniProt Q16539); assay type: functional;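 note: part of a kinome-wide panel, MAPK14 entry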
[6] = cells; assay type: functional, cell-based
[7] = Luminescence Cell-Based Dose Response HTS to Identify Inhibitors of 5'UTR Stem-Loop Driven Prion Protein mRNA Translation in H4 Neuroglioblastoma Cells. [Related pubchem assays: 1827 (Project Summary), 1813 (Primary HTS)]; assay type: functional
[8] = viability loss in HeLa cells – cytotoxicity control for MgcRacGAP inhibitor project, dose response (AID 624300); assay type: functional
[9] = biological target: T2, Heat shock factor protein 1 (Mus musculus, UniProt P38532); test: decrease of HSF1-responsive luciferase luminescence – cell-based, NIH3T3, dose retest, confirmation (AID 2382); assay type: functional;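 note: NIH3T3 fibroblasts with HSF1-driven luciferase reporter stressed by proteasome inhibitor MG132; luminescence from HSF1-driven luciferase expression after 8 hours of MG132 stress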
T2 sequence (P38532 whole entry): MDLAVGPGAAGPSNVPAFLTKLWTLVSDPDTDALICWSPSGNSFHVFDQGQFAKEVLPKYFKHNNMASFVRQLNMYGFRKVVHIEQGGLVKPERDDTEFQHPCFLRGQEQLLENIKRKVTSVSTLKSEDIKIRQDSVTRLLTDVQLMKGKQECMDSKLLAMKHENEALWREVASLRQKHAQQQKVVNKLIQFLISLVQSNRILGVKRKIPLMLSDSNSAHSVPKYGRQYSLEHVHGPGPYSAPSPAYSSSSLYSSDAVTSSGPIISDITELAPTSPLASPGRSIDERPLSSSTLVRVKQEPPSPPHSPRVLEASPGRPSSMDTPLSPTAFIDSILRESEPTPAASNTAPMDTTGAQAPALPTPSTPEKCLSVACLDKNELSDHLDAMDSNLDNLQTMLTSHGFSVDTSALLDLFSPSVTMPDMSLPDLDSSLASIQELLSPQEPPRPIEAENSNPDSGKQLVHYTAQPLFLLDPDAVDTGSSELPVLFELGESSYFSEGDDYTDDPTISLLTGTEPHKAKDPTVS

[10] = biological target: T3, Sentrin-specific protease 8 (Homo sapiens, UniProt Q96LD8); assay type: functional
T3 sequence (Q96LD8 whole entry): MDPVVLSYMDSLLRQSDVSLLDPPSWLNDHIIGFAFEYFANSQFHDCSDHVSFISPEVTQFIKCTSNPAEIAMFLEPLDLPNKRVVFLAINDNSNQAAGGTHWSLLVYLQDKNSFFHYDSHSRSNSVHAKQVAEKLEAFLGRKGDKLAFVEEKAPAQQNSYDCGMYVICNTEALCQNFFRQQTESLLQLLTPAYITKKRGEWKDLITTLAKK

[11] = biological target: T3, Sentrin-specific protease 8; assay type: functional; remark: listed apart in the source
[12] = biological target: Homeodomain-interacting protein kinase 2 (Homo sapiens, UniProt Q9H2X6); assay type: functional;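 note: measured within a kinome-wide kinase profiling panel, HIPK2 being one panel member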
[13] = biological target: Calcium/calmodulin-dependent protein kinase type II subunit delta (Homo sapiens, UniProt Q13557); assay type: functional
[14] = biological target: SUMO-activating enzyme (Homo sapiens, UniProt Q9UBT2); test: blockers of SAE1/SAE2–UBC9 SUMO transfer – biochemical, HTRF, uHTS, primary screen (AID 2006); assay type: protein-complex assay
Sequence of SUMO-activating enzyme (Q9UBE0 whole entry): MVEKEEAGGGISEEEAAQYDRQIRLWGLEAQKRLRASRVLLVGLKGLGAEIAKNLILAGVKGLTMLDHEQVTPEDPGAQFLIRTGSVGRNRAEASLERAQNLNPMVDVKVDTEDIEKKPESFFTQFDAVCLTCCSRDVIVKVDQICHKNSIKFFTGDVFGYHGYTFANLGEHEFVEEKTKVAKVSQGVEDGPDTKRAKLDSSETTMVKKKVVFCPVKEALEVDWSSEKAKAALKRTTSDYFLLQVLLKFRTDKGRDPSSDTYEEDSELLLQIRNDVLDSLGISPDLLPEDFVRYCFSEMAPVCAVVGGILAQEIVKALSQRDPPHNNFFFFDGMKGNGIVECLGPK
Sequence of SUMO-activating enzyme (Q9UBT2 whole entry): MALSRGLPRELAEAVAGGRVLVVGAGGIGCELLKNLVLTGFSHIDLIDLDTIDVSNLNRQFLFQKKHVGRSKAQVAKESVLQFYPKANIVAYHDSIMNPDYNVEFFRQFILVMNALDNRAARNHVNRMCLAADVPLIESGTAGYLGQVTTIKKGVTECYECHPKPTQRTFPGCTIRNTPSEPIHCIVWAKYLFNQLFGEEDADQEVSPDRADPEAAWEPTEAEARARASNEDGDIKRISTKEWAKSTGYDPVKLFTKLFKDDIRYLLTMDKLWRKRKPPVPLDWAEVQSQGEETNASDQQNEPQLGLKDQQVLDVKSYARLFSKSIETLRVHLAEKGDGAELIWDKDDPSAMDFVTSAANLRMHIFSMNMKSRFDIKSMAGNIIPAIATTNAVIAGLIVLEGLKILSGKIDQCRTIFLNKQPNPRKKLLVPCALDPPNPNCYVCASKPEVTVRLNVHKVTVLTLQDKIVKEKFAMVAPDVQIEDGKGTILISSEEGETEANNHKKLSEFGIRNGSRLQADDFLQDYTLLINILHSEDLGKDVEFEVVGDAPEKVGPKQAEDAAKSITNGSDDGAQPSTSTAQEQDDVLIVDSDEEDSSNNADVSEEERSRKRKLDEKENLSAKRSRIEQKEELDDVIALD

Sequence of Cyclin-dependent kinase 5 (Q00535 whole entry): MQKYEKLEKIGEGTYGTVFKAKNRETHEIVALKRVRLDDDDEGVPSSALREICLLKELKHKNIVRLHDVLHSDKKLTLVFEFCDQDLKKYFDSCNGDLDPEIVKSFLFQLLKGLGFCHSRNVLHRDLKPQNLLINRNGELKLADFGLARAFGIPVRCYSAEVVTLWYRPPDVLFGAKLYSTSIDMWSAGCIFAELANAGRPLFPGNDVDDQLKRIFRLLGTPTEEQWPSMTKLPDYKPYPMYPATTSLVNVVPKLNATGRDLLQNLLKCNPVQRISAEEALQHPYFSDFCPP
Sequence of Mitogen-activated protein kinase 14 (Q16539 whole entry): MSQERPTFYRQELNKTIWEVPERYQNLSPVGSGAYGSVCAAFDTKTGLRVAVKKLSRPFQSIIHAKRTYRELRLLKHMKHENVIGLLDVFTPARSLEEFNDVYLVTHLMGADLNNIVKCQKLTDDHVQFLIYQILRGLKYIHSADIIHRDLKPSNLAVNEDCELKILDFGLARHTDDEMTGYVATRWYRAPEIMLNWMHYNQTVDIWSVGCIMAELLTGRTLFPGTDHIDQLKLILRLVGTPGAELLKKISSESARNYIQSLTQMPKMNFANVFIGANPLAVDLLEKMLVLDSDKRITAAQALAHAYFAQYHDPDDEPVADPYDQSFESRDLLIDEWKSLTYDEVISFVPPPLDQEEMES
Sequence of Calcium/calmodulin-dependent protein kinase type II subunit delta (Q13557 whole entry): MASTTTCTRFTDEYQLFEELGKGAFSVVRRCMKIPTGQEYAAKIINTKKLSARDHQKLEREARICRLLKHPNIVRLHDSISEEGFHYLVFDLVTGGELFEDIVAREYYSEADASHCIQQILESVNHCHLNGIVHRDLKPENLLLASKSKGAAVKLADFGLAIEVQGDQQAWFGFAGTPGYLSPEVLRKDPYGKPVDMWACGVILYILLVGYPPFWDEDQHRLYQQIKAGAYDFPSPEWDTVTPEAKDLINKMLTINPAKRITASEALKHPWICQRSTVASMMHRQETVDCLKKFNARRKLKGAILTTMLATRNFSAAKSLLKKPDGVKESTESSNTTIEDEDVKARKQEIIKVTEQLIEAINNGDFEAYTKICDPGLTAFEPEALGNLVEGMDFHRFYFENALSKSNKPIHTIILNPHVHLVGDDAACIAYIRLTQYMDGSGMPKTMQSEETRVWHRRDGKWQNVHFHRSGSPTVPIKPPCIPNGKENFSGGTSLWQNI
Sequence of Intestinal-type alkaline phosphatase (P09923 whole entry): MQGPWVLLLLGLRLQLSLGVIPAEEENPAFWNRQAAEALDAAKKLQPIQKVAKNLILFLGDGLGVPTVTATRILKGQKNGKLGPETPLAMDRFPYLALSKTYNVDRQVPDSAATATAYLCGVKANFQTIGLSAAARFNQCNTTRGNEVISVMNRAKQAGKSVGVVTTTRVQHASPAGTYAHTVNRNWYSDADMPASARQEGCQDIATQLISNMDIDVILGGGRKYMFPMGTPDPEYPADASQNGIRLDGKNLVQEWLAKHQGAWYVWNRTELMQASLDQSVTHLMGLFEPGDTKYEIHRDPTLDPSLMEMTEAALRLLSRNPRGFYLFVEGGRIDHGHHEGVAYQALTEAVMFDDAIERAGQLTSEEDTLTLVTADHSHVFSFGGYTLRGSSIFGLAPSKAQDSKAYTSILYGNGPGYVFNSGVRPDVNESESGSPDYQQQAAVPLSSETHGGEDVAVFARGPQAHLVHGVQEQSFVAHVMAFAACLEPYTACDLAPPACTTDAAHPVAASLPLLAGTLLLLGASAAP
Sequence of Homeodomain-interacting protein kinase 2 (Q9H2X6 whole entry): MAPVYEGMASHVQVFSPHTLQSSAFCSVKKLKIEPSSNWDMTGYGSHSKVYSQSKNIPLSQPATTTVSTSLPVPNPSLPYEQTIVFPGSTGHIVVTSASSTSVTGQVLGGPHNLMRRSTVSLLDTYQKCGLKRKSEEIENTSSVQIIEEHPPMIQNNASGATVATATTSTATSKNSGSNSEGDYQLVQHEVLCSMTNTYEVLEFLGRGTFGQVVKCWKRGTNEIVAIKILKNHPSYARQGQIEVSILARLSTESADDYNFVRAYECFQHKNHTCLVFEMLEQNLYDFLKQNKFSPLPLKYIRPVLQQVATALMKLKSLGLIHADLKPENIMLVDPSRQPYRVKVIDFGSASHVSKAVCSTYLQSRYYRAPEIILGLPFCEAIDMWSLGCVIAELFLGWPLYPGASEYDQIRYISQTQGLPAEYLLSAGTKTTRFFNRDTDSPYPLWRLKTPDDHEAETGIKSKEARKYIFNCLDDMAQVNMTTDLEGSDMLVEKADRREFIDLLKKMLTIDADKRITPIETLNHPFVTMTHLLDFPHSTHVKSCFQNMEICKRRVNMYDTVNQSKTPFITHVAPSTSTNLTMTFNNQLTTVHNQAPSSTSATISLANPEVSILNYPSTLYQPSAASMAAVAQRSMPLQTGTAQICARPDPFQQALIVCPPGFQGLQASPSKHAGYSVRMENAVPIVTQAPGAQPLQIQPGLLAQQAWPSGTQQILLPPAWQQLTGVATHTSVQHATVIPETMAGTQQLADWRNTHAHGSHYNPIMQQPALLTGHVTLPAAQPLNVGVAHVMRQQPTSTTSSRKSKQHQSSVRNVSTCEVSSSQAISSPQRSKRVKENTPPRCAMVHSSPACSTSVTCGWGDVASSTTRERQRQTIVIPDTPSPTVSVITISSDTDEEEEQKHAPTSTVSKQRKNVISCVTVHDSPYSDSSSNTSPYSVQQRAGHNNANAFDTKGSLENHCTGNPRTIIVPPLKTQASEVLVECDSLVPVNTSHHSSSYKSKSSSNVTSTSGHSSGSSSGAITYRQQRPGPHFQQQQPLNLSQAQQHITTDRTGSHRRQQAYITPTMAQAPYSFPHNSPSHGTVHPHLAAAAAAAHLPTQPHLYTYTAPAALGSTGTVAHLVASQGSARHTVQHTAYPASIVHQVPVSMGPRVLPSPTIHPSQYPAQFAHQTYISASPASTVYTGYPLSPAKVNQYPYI

O=C(N/N=C/c1c(O)ccc2ccccc12)c1[nH]ncc1Br
EC50 [1]: > 100 µM (inactive)
EC50 [2]: 7.56 µM (active)
EC50 [3]: 7.88 µM (active)

Nc1c(-c2ccc(NC(=O)Nc3cccc(C(F)(F)F)c3)cc2)cnc2c(-c3ccc4c(c3)OCO4)cnn12
Ki [4]: > 3.16 µM (inactive)
Ki [5]: > 3.98 µM (inactive)

CCN1C(=Cc2sc3ccccc3[n+]2C)C=Cc2cccc(C)c21
EC50 [6]: > 12 µM (not active)
EC50 [7]: 6.43 µM (active)
CC50 [8]: 13.8 µM (active)

CNC[C@H](Cc1ccccc1)NC[C@@H](Cc1cccc2ccccc12)NCCc1ccc(C)cc1
EC50 [9]: 18.5 µM (active)

Nc1nnc2c(n1)CCCC2
IC50 [10]: 6.32 µM (active)
IC50 [11]: 2.98 µM (active)

O=C(Nc1cc(-c2c[nH]c3ncccc23)cc(Cl)n1)c1ccccc1
Ki [12]: > 3.98 µM (inactive)
Ki [13]: > 3.16 µM (inactive)

O=C(Cc1ccccc1Cl)NC1(O)C(=O)c2ccccc2C1=O
IC50 [14]: 26 µM (active)

— ChEMBL document CHEMBL1201862, “PubChem BioAssay data set” (2004)
